Source: EP3536368B1, “DRY POWDER INHALER COMPRISING A SEROTONIN RECEPTOR AGONIST AND A DIKETOPIPERAZINE FOR TREATING MIGRAINES” (MannKind Corporation, priority 2010, dated 2012)
Where two headings read alike, the source gives them in different places.

Key:
[1] = system: migraine model in anesthetized dogs; test: Pharmacodynamic study, capsaicin-induced carotid vasodilation migraine model; format: in vivo, Beagle Dogs; conditions: regardless of the route of administration
[2] = rat, in vivo
[3] = in vivo; conditions: female, Sprague Dawley, rat, iv

In the case of CNS(=O)(=O)Cc1ccc2[nH]cc(CCN(C)C)c2c1 [Sumatriptan, sumatriptan], the “Blood pressure and heart rate” value [1] was “unaltered”, the tolerability [2] was “well tolerated” and the AUC ([2]; iv) was 273,729 (min,ng/mL)mg. The Cmax ([2]; iv) was 26,719 ng/mL/mg, the AUC ([2]; sc) was 99,583 (min,ng/mL)mg and the Cmax ([2]; sc) was 2309 ng/mL/mg. It also gave a half-life [3] of 5.07 h.
